Experiment [1] concerns the target T1, Prostaglandin G/H synthase 1 (Homo sapiens, UniProt P23219). Format: functional.
The target in experiment [2] is T2, Prostaglandin G/H synthase 2 (Homo sapiens, UniProt P35354).
T2 sequence (P35354 whole entry): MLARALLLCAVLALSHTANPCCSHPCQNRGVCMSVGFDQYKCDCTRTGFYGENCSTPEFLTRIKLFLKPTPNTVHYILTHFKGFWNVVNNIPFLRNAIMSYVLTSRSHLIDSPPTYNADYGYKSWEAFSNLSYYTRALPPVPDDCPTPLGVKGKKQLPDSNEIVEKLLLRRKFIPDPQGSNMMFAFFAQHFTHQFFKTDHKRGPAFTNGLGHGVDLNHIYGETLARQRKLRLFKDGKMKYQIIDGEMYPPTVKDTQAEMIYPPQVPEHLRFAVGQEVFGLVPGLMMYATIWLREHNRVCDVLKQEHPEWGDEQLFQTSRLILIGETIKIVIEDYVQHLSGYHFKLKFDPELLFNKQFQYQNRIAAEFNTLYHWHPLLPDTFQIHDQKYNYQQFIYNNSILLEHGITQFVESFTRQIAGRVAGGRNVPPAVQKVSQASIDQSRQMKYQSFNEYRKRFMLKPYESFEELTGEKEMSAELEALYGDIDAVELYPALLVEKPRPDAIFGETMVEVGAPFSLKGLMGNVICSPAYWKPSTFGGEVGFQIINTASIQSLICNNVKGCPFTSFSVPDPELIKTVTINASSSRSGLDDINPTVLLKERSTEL
Format: functional.

In experiment [3] the target is T1, Prostaglandin G/H synthase 1. In words: In vitro inhibition of cyclooxygenase-1 via inhibition of TXB2 generation in the presence of 1 uM arachidonic acid in human platelets.
The target is the same in experiment [4]. In words: In vitro inhibition of cyclooxygenase-1 via inhibition of TXB2 generation in the presence of 1 uM arachidonic acid in human platelets at concentration of 10 uM. The class given is functional.
The target of experiment [5] is T3, Prostaglandin G/H synthase 2 (Homo sapiens) (UniProt P35354).
T3 sequence (whole entry): T2 sequence (P35354 whole entry)
In words: In vitro inhibition of cyclooxygenase-2 via inhibition of PGE-2 generation by LPS-stimulated monocytes isolated from human blood at concentration of 20 uM. The class given is functional.

Experiment [6] has as its target T3, Prostaglandin G/H synthase 2 (Homo sapiens). In words: In vitro inhibition of cyclooxygenase-2 via inhibition of PGE-2 generation by LPS-stimulated monocytes isolated from human blood at a concentration of 20 uM. The class given is functional.
Experiment [7] concerns the target T2, Prostaglandin G/H synthase 2. In words: Tested in vitro for inhibition of cyclooxygenase-2 in human blood assay. Format: functional.
For experiment [8], the target named is T1, Prostaglandin G/H synthase 1. The experiment can be described thus: Tested in vitro for inhibition of cyclooxygenase-1 in human blood assay. Format: functional.
Experiment [9] concerns the target T3, Prostaglandin G/H synthase 2 (Homo sapiens). In words: In vitro inhibition of cyclooxygenase-2 via inhibition of PGE-2 generation by LPS-stimulated monocytes isolated from human blood. The class given is functional.
For experiment [10], the target named is T1, Prostaglandin G/H synthase 1. In words: In vitro inhibition of cyclooxygenase-1 via inhibition of TXB2 generation in the presence of 1 uM arachidonic acid in human platelet. The class given is functional.
The target of experiment [11] is T2, Prostaglandin G/H synthase 2. The experiment can be described thus: In vitro inhibition of cyclooxygenase-2 via inhibition of PGE-2 generation by LPS-stimulated monocytes isolated from human blood; inactive. Format: functional.
The target in experiment [12] is T1, Prostaglandin G/H synthase 1. In words: In vitro inhibition of cyclooxygenase-1 via inhibition of TXB2 generation in the presence of 1 uM arachidonic acid in human platelets. Format: functional.

In ChEMBL document CHEMBL1136059 (Bioorg Med Chem Lett, 2002) one finds IC50 and inhibition data, which are given here for 23 compounds.

T1 sequence (P23219 whole entry): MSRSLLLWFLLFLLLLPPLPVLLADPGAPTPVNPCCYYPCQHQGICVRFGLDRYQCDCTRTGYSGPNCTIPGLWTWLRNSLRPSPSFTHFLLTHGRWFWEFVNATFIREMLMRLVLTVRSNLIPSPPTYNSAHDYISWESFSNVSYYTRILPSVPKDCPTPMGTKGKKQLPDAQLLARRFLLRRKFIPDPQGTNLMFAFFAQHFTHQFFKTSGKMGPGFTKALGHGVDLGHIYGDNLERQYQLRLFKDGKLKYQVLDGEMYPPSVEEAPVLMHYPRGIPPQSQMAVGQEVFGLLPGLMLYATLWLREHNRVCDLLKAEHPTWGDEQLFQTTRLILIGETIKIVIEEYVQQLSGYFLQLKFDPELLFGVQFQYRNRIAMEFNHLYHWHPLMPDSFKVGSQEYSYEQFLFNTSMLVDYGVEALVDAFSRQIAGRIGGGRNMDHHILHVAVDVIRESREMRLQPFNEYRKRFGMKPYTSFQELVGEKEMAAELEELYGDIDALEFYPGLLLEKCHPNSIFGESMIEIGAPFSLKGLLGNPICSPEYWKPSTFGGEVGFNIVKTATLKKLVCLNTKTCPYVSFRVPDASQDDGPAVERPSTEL

As to `N#Cc1cc(/C=C/S(N)(=O)=O)cc(C(=O)c2ccccc2)c1`, the IC50 in experiment [1] was 1.7 µM; in experiment [2], 5.6 µM.
On to `CCc1cc(C(=O)c2ccccc2)ccc1/C=C/S(N)(=O)=O`, for which the half-maximal inhibitory concentration (IC50) in experiment [2] was 5.6 µM; in experiment [3] it was 6.3 µM.
For `CS(=O)(=O)c1ccc(C2=C(c3ccccc3)C(=O)OC2)cc1`, the inhibition in experiment [4] came to 0%.
On to `NS(=O)(=O)/C=C/c1ccccc1C(=O)c1ccccc1`, for which the figures for the inhibition in experiment [5] and in [4] were 43% and 39%, respectively.
In the case of `NS(=O)(=O)/C=C/c1cccc(C(=O)c2ccccc2)c1`, the inhibition was 37% in [6] and 0% in [4].
`NS(=O)(=O)/C=C/c1ccc(C(=O)c2ccccc2)cc1CO`: in experiment [4], the inhibition worked out at 25%. The IC50 in experiment [2] was determined as 8.4 µM.
`CCOC(=O)/C=C/c1cc(CC)cc(C(=O)c2ccccc2)c1`: the concentration for half-maximal inhibition (IC50) in experiment [2] is 5 µM.
In the case of `CCc1cc(/C=C/S(N)(=O)=O)cc(C(=O)c2ccccc2)c1`, the IC50 in experiment [7] stood at 12 µM; in experiment [1], 18 µM; in experiment [8], 100 µM; in experiment [2] it was 0.2 µM.
With `Cc1cc(/C=C/S(N)(=O)=O)ccc1C(=O)c1ccccc1`, the inhibition was 41% in [9] and 0% in [4].
For the compound `CCc1cc(/C=C/S(C)(=O)=O)cc(C(=O)c2ccccc2)c1`, the inhibition came to 40% in experiment [6] and 16% in experiment [4].
In the case of `CCc1cc(/C=C/C(N)=O)cc(C(=O)c2ccccc2)c1`, the figures for the IC50 in experiment [10] and in experiment [2] were 0.074 µM and 1.8 µM, respectively.
As to `CS(=O)(=O)/C=C/c1cccc(C(=O)c2ccccc2)c1`, in experiment [11], the IC50 result is recorded as “Not Active”.
`CN(C)C(=O)c1cc(/C=C/S(N)(=O)=O)cc(C(=O)c2ccccc2)c1` had an inhibition in experiment [6] of 31%.
`CCN(CC)Cc1cc(/C=C/S(N)(=O)=O)cc(C(=O)c2ccccc2)c1`: in experiment [2], 7.1 µM corresponded to half-maximal inhibition (IC50).
Take `CC(C)=Cc1cc(/C=C/S(N)(=O)=O)cc(C(=O)c2ccccc2)c1`: the concentration for half-maximal inhibition (IC50) in experiment [1] came out at 3.6 µM; in experiment [2], 0.98 µM.
The compound `CC(C(=O)O)c1cc(/C=C/S(C)(=O)=O)cc(C(=O)c2ccccc2)c1` (stereo not given) came in with an IC50 in experiment [2] of 9.7 µM.
For the compound `Cc1cc(C(=O)c2ccccc2)ccc1/C=C/S(N)(=O)=O`, the results for the inhibition in experiment [5] and in experiment [4] were 14% and 0%, respectively.
On to `CCc1cc(/C=C/C(=O)O)cc(C(=O)c2ccccc2)c1`, for which inhibition in experiment [2] was half-maximal at 2.6 µM (IC50).
`NS(=O)(=O)/C=C/c1cc(CO)cc(C(=O)c2ccccc2)c1` displayed an IC50 in experiment [1] of 5.4 µM.
Regarding `CS(=O)(=O)/C=C/c1ccc(C(=O)c2ccccc2)cc1`, the results for the inhibition in experiment [5] and in [4] were 6% and 14%, respectively.
`Cc1ccc(/C=C/S(N)(=O)=O)cc1C(=O)c1ccccc1`: the inhibition in experiment [12] worked out at 49%. In addition, the half-inhibitory concentration (IC50) in experiment [2] is 19 µM.
Turning to `CCc1ccc(/C=C/S(N)(=O)=O)cc1C(=O)c1ccccc1`, the IC50 in experiment [1] was 0.2 µM; in experiment [2] it was 0.77 µM.
In the case of `CC(=O)c1cc(/C=C/S(N)(=O)=O)cc(C(=O)c2ccccc2)c1`, the half-inhibitory concentration (IC50) in [1] worked out at 6.4 µM; in experiment [2], 20 µM.
